Experimental data taken from article PMC9206137, “Synergistic anti-SARS-CoV-2 activity of repurposed anti-parasitic drug combinations” (BMC Pharmacology & Toxicology, 2022).
Several values for one entry are separate records, joined by “and”; a condition that tells them apart may be missing. Equal entries are not always repeated.

How the values were obtained:
[1] = Cell viability assay (MTT) in Vero E6 cells; conditions: African green monkey
Experimental: (§1) Subsequently, the cell viability was assessed using MTT dyes (Invitrogen) in duplicate (Supplementary file 1). The procedure was described elsewhere. The viability of drug-treated cells was expressed as percent cell viability relative to 0.5% DMSO-treated cells.

[2] = system: SARS-CoV-2; assay: Antiviral activity against SARS-CoV-2 in Vero E6 cells, one-step qRT-PCR (single drugs, two-drug combinations, synergy analysis); conditions: for %inhibition (qRT-PCR) / IC50: Vero E6; for %inhibition (qRT-PCR) / % inhibition: replicates; for % inhibition: Vero E6 cells; for IC50: read-out: IC50 (μM) qRT-PCR, MOI 0.01, 48 hours, single drug
[3] = system: SARS-CoV-2; conditions: because of the expression of TMPRSS2; cited from earlier work
[4] = system: SARS-CoV-2; assay: Antiviral activity against SARS-CoV-2 in Vero E6 cells, plaque assay; type: cell-based; conditions: for IC50: Severe acute respiratory syndrome coronavirus 2, Vero C1008, MOI 0.01, 48 hours, single drug; for IC50 / %inhibition (plaque assay): Vero E6
[5] = system: Vero E6 cells; assay: Cell viability assay (MTT) in Vero E6 cells; conditions: replicates; for %cell viability: Vero E6; for cell viability: Vero E6 cells
Experimental: as §1

[6] = system: SARS-CoV-2; assay: microbe, parasite or virus in culture; type: cell-based; conditions: for % inhibition: Calu-3 cells
[7] = Cell viability assay (MTT) in Calu-3 cells; conditions: human, Calu-3 cells
Experimental: as §1

[8] = system: Calu-3 cells; assay: Cell viability assay (MTT) in Calu-3 cells; conditions: replicates; for %cell viability: Calu-3; for cell viability: Calu-3 cells
Experimental: as §1

SMILES: CCN(CC)CCCC(C)Nc1ccnc2cc(Cl)ccc12 (stereo not drawn) [Chloroquine, chloroquine]
- viability at 48 h, 40 uM ([1]; %cell viability, Vero E6, chloroquine 40 uM, replicates): 78.5%
- viability at 48 h, 160 uM ([1]; %cell viability, Vero E6, chloroquine 160 uM, replicates): 34.5%
- %inhibition (qRT-PCR) ([2]; chloroquine 0.15625 uM): 14.20% and 15.40% and 13.50%
- %inhibition (qRT-PCR) ([2]; chloroquine 0.3125 uM): 29.59% and 23.98%
- %inhibition (qRT-PCR) ([2]; chloroquine 0.625 uM): 47.22% and 54.26% and 49.79%
- %inhibition (qRT-PCR) ([2]; chloroquine 1.25 uM): 51.48% and 58.46% and 54.05%
- %inhibition (qRT-PCR) ([2]; chloroquine 2.5 uM): 67.75% and 70.05% and 70.73%
- %inhibition (qRT-PCR) ([2]; chloroquine 5 uM): 88.11% and 84.26% and 88.40%
- % inhibition ([2]; Chloroquine 0.2125 uM alone): 32.17% and 30.26% and 30.74%
- % inhibition ([2]; Chloroquine 0.425 uM alone): 35.38% and 45.66% (2×)
- % inhibition ([2]; Chloroquine 0.85 uM alone): 58.25% and 55.25% and 59.67%
- % inhibition ([2]; Chloroquine 1.7 uM alone): 76.18% and 70.48% and 73.21%
- IC50 [2]: 0.89 µM
- inhibition of SARS-CoV-2 in human lung cells [3]: could not inhibit
- inhibition at 0.625 µM ([4]; Severe acute respiratory syndrome coronavirus 2, Vero C1008, Vero E6, chloroquine 0.625 uM, replicates): 50%
- inhibition at 1.25 µM ([4]; Severe acute respiratory syndrome coronavirus 2, Vero C1008, Vero E6, chloroquine 1.25 uM, replicates): 61.4%
- inhibition at 2.5 µM ([4]; Severe acute respiratory syndrome coronavirus 2, Vero C1008, Vero E6, chloroquine 2.5 uM, replicates): 70%
- inhibition at 5 µM ([4]; Severe acute respiratory syndrome coronavirus 2, Vero C1008, Vero E6, chloroquine 5 uM, replicates): 85.1%
- IC50 [4]: 0.83 µM
- %inhibition (plaque assay) ([4]; chloroquine 0.15625 uM, replicates): 5.00% and 10.00%
- %inhibition (plaque assay) ([4]; chloroquine 0.3125 uM, replicates): 15.00% and 6.06% and 11.00%
- %inhibition (plaque assay) ([4]; chloroquine 0.625 uM, replicates): 55.50%
- %inhibition (plaque assay) ([4]; chloroquine 1.25 uM, replicates): 73.20% and 66.30%
- %inhibition (plaque assay) ([4]; chloroquine 2.5 uM, replicates): 75.00% and 69.50%
- %inhibition (plaque assay) ([4]; chloroquine 5 uM, replicates): 87.00% and 85.00%

SMILES: O=C(Nc1ccc([N+](=O)[O-])cc1Cl)c1cc(Cl)ccc1O [Niclosamide, niclosamide]
- CC50 at 48 h ([1]; Vero E6 cells): 290 nM
- viability at 48 h, 0.00390625 uM ([1]; Vero E6 cells, %cell viability, Vero E6, niclosamide 0.00390625 uM, replicates): 98.6%
- viability at 48 h, 0.0078125 uM ([1]; Vero E6 cells, %cell viability, Vero E6, niclosamide 0.0078125 uM, replicates): 97.7%
- viability at 48 h, 0.015625 uM ([1]; Vero E6 cells, %cell viability, Vero E6, niclosamide 0.015625 uM, replicates): 91.7%
- viability at 48 h, 0.03125 uM ([1]; Vero E6 cells, %cell viability, Vero E6, niclosamide 0.03125 uM, replicates): 92.7%
- viability at 48 h, 0.0625 uM ([1]; Vero E6 cells, %cell viability, Vero E6, niclosamide 0.0625 uM, replicates): 95%
- viability at 48 h, 0.125 uM ([1]; Vero E6 cells, %cell viability, Vero E6, niclosamide 0.125 uM, replicates): 91.3%
- viability at 48 h, 0.25 uM ([1]; Vero E6 cells, %cell viability, Vero E6, niclosamide 0.25 uM, replicates): 59.2%
- viability at 48 h, 0.5 uM ([1]; Vero E6 cells, %cell viability, Vero E6, niclosamide 0.5 uM, replicates): 20.1%
- %cell viability ([5]; niclosamide 0.00390625 uM): 92.84%
- %cell viability ([5]; niclosamide 0.0078125 uM): 91.90%
- %cell viability ([5]; niclosamide 0.015625 uM): 92.98%
- %cell viability ([5]; niclosamide 0.03125 uM): 90.36%
- %cell viability ([5]; niclosamide 0.0625 uM): 90.95%
- %cell viability ([5]; niclosamide 0.125 uM): 88.11%
- %cell viability ([5]; niclosamide 0.25 uM): 54.41%
- %cell viability ([5]; niclosamide 0.5 uM): 25.91%
- cell viability ([5]; Niclosamide 0.01125 uM alone): 91.66 and 92.98
- cell viability ([5]; Niclosamide 0.0225 uM alone): 92.73 and 90.36
- cell viability ([5]; Niclosamide 0.045 uM alone): 94.97 and 90.95
- cell viability ([5]; Niclosamide 0.09 uM alone): 89.48 and 90.50
- SI ([6]; Calu-3): 28.1
- %inhibition (plaque assay) ([6]; Calu-3, niclosamide 0.039063 uM, replicates): 23.81% (2×) and 35.24%
- %inhibition (plaque assay) ([6]; Calu-3, niclosamide 0.078125 uM, replicates): 35.24% and 39.05%
- %inhibition (plaque assay) ([6]; Calu-3, niclosamide 0.15625 uM, replicates): 35.24% and 42.86% and 20.00%
- %inhibition (plaque assay) ([6]; Calu-3, niclosamide 0.3125 uM, replicates): 69.52% and 61.90%
- %inhibition (plaque assay) ([6]; Calu-3, niclosamide 0.625 uM, replicates): 61.90%
- %inhibition (plaque assay) ([6]; Calu-3, niclosamide 1.25 uM, replicates): 69.52% and 80.95%
- % inhibition ([6]; Niclosamide 0.05 uM alone, replicates): 33.33% and 13.33% (2×)
- % inhibition ([6]; Niclosamide 0.10 uM alone, replicates): 40.00%
- % inhibition ([6]; Niclosamide 0.40 uM alone, replicates): 70.00%
- inhibition at 0.039063 µM ([6]; Severe acute respiratory syndrome coronavirus 2, Calu-3, Calu-3, niclosamide 0.039063 uM, replicates, read-out: %inhibition (plaque assay)): 31.4%
- inhibition at 0.078125 µM ([6]; Severe acute respiratory syndrome coronavirus 2, Calu-3, Calu-3, niclosamide 0.078125 uM, replicates, read-out: %inhibition (plaque assay)): 31.4%
- inhibition at 0.1 µM ([6]; Severe acute respiratory syndrome coronavirus 2, Calu-3, Calu-3, niclosamide 0.1 uM alone): 46.7 ± 6.67%
- inhibition at 0.2 µM ([6]; Severe acute respiratory syndrome coronavirus 2, Calu-3, Calu-3, niclosamide 0.2 uM alone): 53.3 ± 6.67%
- inhibition at 0.3125 µM ([6]; Severe acute respiratory syndrome coronavirus 2, Calu-3, Calu-3, niclosamide 0.3125 uM, replicates, read-out: %inhibition (plaque assay)): 73.3%
- inhibition at 0.4 µM ([6]; Severe acute respiratory syndrome coronavirus 2, Calu-3, Calu-3, niclosamide 0.4 uM alone): 61.1 ± 8.39%
- inhibition at 0.625 µM ([6]; Severe acute respiratory syndrome coronavirus 2, Calu-3, Calu-3, niclosamide 0.625 uM, replicates, read-out: %inhibition (plaque assay)): 65.7%
- inhibition at 1.25 µM ([6]; Severe acute respiratory syndrome coronavirus 2, Calu-3, Calu-3, niclosamide 1.25 uM, replicates, read-out: %inhibition (plaque assay)): 73.3%
- inhibition at 0.1 µM ([6]; Severe acute respiratory syndrome coronavirus 2, Calu-3, Calu-3 cells, Niclosamide 0.10 uM alone, replicates): 53.3%
- inhibition at 0.2 µM ([6]; Severe acute respiratory syndrome coronavirus 2, Calu-3, Calu-3 cells, Niclosamide 0.20 uM alone, replicates): 53.3%
- inhibition at 0.4 µM ([6]; Severe acute respiratory syndrome coronavirus 2, Calu-3, Calu-3 cells, Niclosamide 0.40 uM alone, replicates): 60%
- IC50 ([6]; Severe acute respiratory syndrome coronavirus 2, Calu-3, 500 TCID50, plaque assay, single drug): 200 nM
- CC50 at 48 h [7]: 5620 nM
- viability at 48 h, 0.019531 uM ([7]; %cell viability, Calu-3, niclosamide 0.019531 uM, replicates): 92.2%
- viability at 48 h, 0.039063 uM ([7]; %cell viability, Calu-3, niclosamide 0.039063 uM, replicates): 102%
- viability at 48 h, 0.078125 uM ([7]; %cell viability, Calu-3, niclosamide 0.078125 uM, replicates): 109%
- viability at 48 h, 0.15625 uM ([7]; %cell viability, Calu-3, niclosamide 0.15625 uM, replicates): 100%
- viability at 48 h, 0.3125 uM ([7]; %cell viability, Calu-3, niclosamide 0.3125 uM, replicates): 100%
- viability at 48 h, 0.625 uM ([7]; %cell viability, Calu-3, niclosamide 0.625 uM, replicates): 107%
- viability at 48 h, 1.25 uM ([7]; %cell viability, Calu-3, niclosamide 1.25 uM, replicates): 96.5%
- viability at 48 h, 2.5 uM ([7]; %cell viability, Calu-3, niclosamide 2.5 uM, replicates): 85%
- viability at 48 h, 5 uM ([7]; %cell viability, Calu-3, niclosamide 5 uM, replicates): 59.4%
- %cell viability ([8]; niclosamide 0.019531 uM): 102.92%
- %cell viability ([8]; niclosamide 0.039063 uM): 104.17%
- %cell viability ([8]; niclosamide 0.078125 uM): 109.86%
- %cell viability ([8]; niclosamide 0.15625 uM): 107.64%
- %cell viability ([8]; niclosamide 0.3125 uM): 99.17%
- %cell viability ([8]; niclosamide 0.625 uM): 104.86%
- %cell viability ([8]; niclosamide 1.25 uM): 97.36%
- %cell viability ([8]; niclosamide 2.5 uM): 82.64%
- %cell viability ([8]; niclosamide 5 uM): 54.44%
- cell viability ([8]; Niclosamide 0.05 uM alone): 96.54 and 92.66
- cell viability ([8]; Niclosamide 0.10 uM alone): 89.85 and 85.75
- cell viability ([8]; Niclosamide 0.20 uM alone): 98.27 and 86.39
- cell viability ([8]; Niclosamide 0.40 uM alone): 103.02 and 98.49
- %inhibition (qRT-PCR) ([2]; niclosamide 0.00390625 uM): 21.23% and 16.04% and 7.08%
- %inhibition (qRT-PCR) ([2]; niclosamide 0.0078125 uM): 27.36% and 22.17% and 24.53%
- %inhibition (qRT-PCR) ([2]; niclosamide 0.015625 uM): 29.25% and 17.92% and 28.30%
- %inhibition (qRT-PCR) ([2]; niclosamide 0.03125 uM): 29.72% and 33.96% and 20.28%
- %inhibition (qRT-PCR) ([2]; niclosamide 0.0625 uM): 52.36% and 36.32% and 72.26%
- %inhibition (qRT-PCR) ([2]; niclosamide 0.125 uM): 95.05% and 87.83% and 93.92%
- % inhibition ([2]; Niclosamide 0.01125 uM alone): 6.05% and 30.26% and 19.89% and 3.41%
- % inhibition ([2]; Niclosamide 0.0225 uM alone): 31.70% and 37.15% and 50.00%
- % inhibition ([2]; Niclosamide 0.045 uM alone): 62.37% and 59.41% and 53.57%
- % inhibition ([2]; Niclosamide 0.09 uM alone): 75.85% and 79.12% and 97.76% and 97.32%
- IC50 [2]: 0.043 µM
- inhibition at 0.00390625 µM ([4]; Severe acute respiratory syndrome coronavirus 2, Vero C1008, Vero E6, niclosamide 0.00390625 uM, replicates): 11.5%
- inhibition at 0.015625 µM ([4]; Severe acute respiratory syndrome coronavirus 2, Vero C1008, Vero E6, niclosamide 0.015625 uM, replicates): 23.2%
- inhibition at 0.03125 µM ([4]; Severe acute respiratory syndrome coronavirus 2, Vero C1008, Vero E6, niclosamide 0.03125 uM, replicates): 23.7%
- inhibition at 0.0625 µM ([4]; Severe acute respiratory syndrome coronavirus 2, Vero C1008, Vero E6, niclosamide 0.0625 uM, replicates): 40.1%
- inhibition at 0.125 µM ([4]; Severe acute respiratory syndrome coronavirus 2, Vero C1008, Vero E6, niclosamide 0.125 uM, replicates): 84.6%
- IC50 [4]: 0.049 µM
- %inhibition (plaque assay) ([4]; niclosamide 0.00390625 uM, replicates): 9.45% and 9.72%
- %inhibition (plaque assay) ([4]; niclosamide 0.0078125 uM, replicates): 5.39% and 21.29% and 14.01%
- %inhibition (plaque assay) ([4]; niclosamide 0.015625 uM, replicates): 25.26% and 23.12%
- %inhibition (plaque assay) ([4]; niclosamide 0.03125 uM, replicates): 28.44% and 31.03%
- %inhibition (plaque assay) ([4]; niclosamide 0.0625 uM, replicates): 40.15% and 40.02%
- %inhibition (plaque assay) ([4]; niclosamide 0.125 uM, replicates): 97.12% and 94.56%
